How the values were obtained:
Cxcl2 mRNA = experiment: Real-time RT-PCR of colonic Cxcl2 mRNA; type: in vivo, mice; details: AS252424 vs vehicle treated infected mice
Procedure: (§1) Total RNA from colonic tissue was extracted using TRIzol® kit (Invitrogen, Carlsbad, Calif., United States of America). Complementary DNA was prepared using M-MLV (Invitrogen). Messenger RNA levels of proinflammatory genes were determined using SYBR® Green PCR Master Mix (Applied Biosystems, Carlsbad, Calif., United States of America) on an ABI 7900HT Fast Real-Time PCR System and normalized to Gapdh. The polymerase chain reactions were performed according to the manufacturer's recommendation. The following gene primers were used: Gapdh_forward: 5′-[…]-3′ (SEQ ID NO: 2), Gapdh_reverse: 5′-[…]-3′ (SEQ ID NO: 3), II-1_forward: 5′-[…]-3′ (SEQ ID NO: 4), II-1_reverse: 5′-[…]-3′ (SEQ ID NO: 5), Cxcl2_forward: 5′-[…]-3′ (SEQ ID NO: 6), Cxcl2_reverse: 5′-[…]-3′ (SEQ ID NO: 7), II-17a_forward: 5′-[…]-3′ (SEQ ID NO: 8), II-17a_reverse: 5′-[…]-3′ (SEQ ID NO: 9), II12p40_forward: […] (SEQ ID NO: 10), II12p40_reverse: […] (SEQ ID NO: 11), Tnf forward: […] (SEQ ID NO: 12), Tnf reverse: […] (SEQ ID NO: 13).
(§2) Total RNA from intestinal tissues was extracted using TRIzol® kit (Invitrogen, Carlsbad, Calif., United States of America) following the manufacture's guide. cDNA was reverse-transcribed using M-MLV (Invitrogen). Proinflammatory 111β, Cxcl2, II17a and Tnfα mRNA expression levels were measured using SYBR® Green PCR Master mix (Applied Biosystems, Carlsbad, Calif., United States of America) on an ABI 7900HT Fast Real-Time PCR System and normalized to Gapdh. The PCR primers used were reported previously. (Sun et al., 2012). The PCR reactions were performed for 40 cycles according to the manufacturer's recommendation, and RNA fold changes were calculated using the ΔΔct method.

II-17a mRNA = experiment: Real-time RT-PCR of colonic II-17a mRNA; type: in vivo, mice; details: AS252424 vs vehicle treated infected mice
Procedure: as §1, §2

O=C1NC(=O)/C(=C/c2ccc(-c3ccc(F)cc3O)o2)S1 [AS252424]
block of C. jejuni-induced Cxcl2 mRNA accumulation (Cxcl2 mRNA): 73%
block of C. jejuni-induced II17a mRNA accumulation (II-17a mRNA): 72%

— patent US20130225629A1, “TARGETING PI3K/MTOR SIGNALLING AND NEUTROPHIL RECRUITMENT FOR TREATMENT OF ENTERITIS” (THE UNIVERSITY OF NORTH CAROLINA AT CHAPEL HILL, priority 2012, published 2013)
